Each structure is given as a SMILES string.

A word on the Ki: it is a measure of affinity in units of concentration, obtained from inhibition or displacement. Lower therefore signals a stronger hold on the target.

For this experiment, the target named is T1, glucocorticoid receptor (Homo sapiens, UniProt P04150).
T1 construct: endogenous in cells; ATCC cat
T1 sequence (P04150 1-777): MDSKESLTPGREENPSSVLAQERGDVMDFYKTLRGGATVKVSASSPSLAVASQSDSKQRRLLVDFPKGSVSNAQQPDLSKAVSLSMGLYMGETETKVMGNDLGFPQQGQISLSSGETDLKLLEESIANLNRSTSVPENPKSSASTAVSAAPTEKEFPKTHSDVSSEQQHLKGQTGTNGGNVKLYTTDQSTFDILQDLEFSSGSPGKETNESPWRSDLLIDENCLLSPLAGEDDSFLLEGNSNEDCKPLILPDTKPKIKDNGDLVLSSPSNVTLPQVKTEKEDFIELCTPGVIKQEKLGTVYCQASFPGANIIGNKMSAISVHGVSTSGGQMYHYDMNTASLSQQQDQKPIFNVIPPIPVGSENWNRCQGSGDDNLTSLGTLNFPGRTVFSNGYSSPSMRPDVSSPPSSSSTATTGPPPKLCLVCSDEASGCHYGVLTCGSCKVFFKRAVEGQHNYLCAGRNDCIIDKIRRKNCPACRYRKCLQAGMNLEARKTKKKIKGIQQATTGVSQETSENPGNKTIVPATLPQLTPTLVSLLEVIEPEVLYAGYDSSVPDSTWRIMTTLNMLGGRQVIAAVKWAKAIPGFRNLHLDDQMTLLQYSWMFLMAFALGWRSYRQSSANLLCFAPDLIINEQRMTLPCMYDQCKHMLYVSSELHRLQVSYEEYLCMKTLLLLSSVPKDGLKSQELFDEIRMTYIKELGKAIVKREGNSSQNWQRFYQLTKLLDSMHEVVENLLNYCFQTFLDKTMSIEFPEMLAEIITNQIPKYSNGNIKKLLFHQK
As to the kind of experiment: Hep G2 TAT Ki: inhibition of dexamethasone-induced TAT in HepG2 cells (96 well). The note with it: challenge of 100 nM dexamethasone, IC50 converted to Ki by Cheng and Prusoff equation. The format is cell-based. A digest of the protocol: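 Cells lysed 15 min at 4 °C; TAT enzyme reaction 2 h at 37 °C, stopped with KOH, 30 min further at 37 °C. Inhibition fitted to 4-parameter logistic.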
Take `Cc1cc2c(cnn2-c2ccc(F)cc2)cc1C1CN(S(=O)(=O)CC(F)(F)F)CCN1CC(C)C` (single isomer, unassigned) [Example 106, 1-(4-fluorophenyl)-5-(1-isobutyl-4-((2,2,2-trifluoroethyl)sulfonyl)piperazin-2-yl)-6-methyl-1H-indazole]: the Ki worked out at 33 nM.

Regarding `Cc1cc2c(cnn2-c2ccc(F)cc2)cc1C1CN(S(=O)(=O)c2cccnc2C#N)CCN1CC(C)C` (single isomer, unassigned) [Example 107, 3-((3-(1-(4-fluorophenyl)-6-methyl-1H-indazol-5-yl)-4-isobutylpiperazin-1-yl)sulfonyl)picolinonitrile], the affinity corresponds to a Ki of 22 nM.

The compound `Cc1cc2c(cnn2-c2ccc(F)cc2)cc1C1CN(S(=O)(=O)CCOC(C)C)CCN1CC(C)C` (single isomer, unassigned) [Example 108, 1-(4-fluorophenyl)-5-(1-isobutyl-4-((2-isopropoxyethyl)sulfonyl)piperazin-2-yl)-6-methyl-1H-indazole] yielded an inhibition constant (Ki) of 44 nM. The compound `Cc1cc2c(cnn2-c2ccc(F)cc2)cc1C1CN(S(=O)(=O)c2nccs2)CCN1CC(C)C` (single isomer, unassigned) [Example 109, 2-((3-(1-(4-fluorophenyl)-6-methyl-1H-indazol-5-yl)-4-isobutylpiperazin-1-yl)sulfonyl)thiazole] gave a Ki of 12 nM. `Cc1cc2c(cnn2-c2ccc(F)cc2)cc1C1CN(S(=O)(=O)c2cnn(CC(F)(F)F)c2)CCN1CC(C)C` (single isomer, unassigned) [Example 110, 1-(4-fluorophenyl)-5-(1-isobutyl-4-((1-(2,2,2-trifluoroethyl)-1H-pyrazol-4-yl)sulfonyl)piperazin-2-yl)-6-methyl-1H-indazole]: the Ki came to 27 nM. Compound `Cc1cc2c(cnn2-c2ccc(F)cc2)cc1C1CN(S(=O)(=O)C2COC2)CCN1CC(C)C` (single isomer, unassigned) [Example 111, 1-(4-fluorophenyl)-5-(1-isobutyl-4-(oxetan-3-ylsulfonyl)piperazin-2-yl)-6-methyl-1H-indazole] returned a Ki of 65 nM. Consider `Cc1cc2c(cnn2-c2ccc(F)cc2)cc1C1CN(S(=O)(=O)c2cnccc2C)CCN1CC(C)C` (single isomer, unassigned) [Example 112, 1-(4-fluorophenyl)-5-(1-isobutyl-4-((4-methylpyridin-3-yl)sulfonyl)piperazin-2-yl)-6-methyl-1H-indazole], for which the Ki was 36 nM. `Cc1cc2c(cnn2-c2ccc(F)cc2)cc1C1CN(S(=O)(=O)Cc2ccc(C#N)cc2)CCN1CC(C)C` (single isomer, unassigned) [Example 114, 4-(((3-(1-(4-fluorophenyl)-6-methyl-1H-indazol-5-yl)-4-isobutylpiperazin-1-yl)sulfonyl)methyl)benzonitrile]: the Ki came out at 55 nM. This Ki lies about 1.5-fold higher than the previous one. For `Cc1cc2c(cnn2-c2ccc(F)cc2)cc1C1CN(S(=O)(=O)c2ccccn2)CCN1CC(C)C` (single isomer, unassigned) [Example 115, 1-(4-fluorophenyl)-5-(1-isobutyl-4-(pyridin-2-ylsulfonyl)piperazin-2-yl)-6-methyl-1H-indazole], the Ki turned out to be 24 nM. Next, `Cc1cc2c(cnn2-c2ccc(F)cc2)cc1C1CN(S(=O)(=O)C2CCC2)CCN1CC(C)C` (single isomer, unassigned) [Example 116, 5-(4-(cyclobutylsulfonyl)-1-isobutylpiperazin-2-yl)-1-(4-fluorophenyl)-6-methyl-1H-indazole]: 25 nM; `Cc1cc2c(cnn2-c2ccc(F)cc2)cc1C1CN(S(=O)(=O)c2ccc(C#N)nc2)CCN1CC(C)C` (single isomer, unassigned) [Example 117, 5-((3-(1-(4-fluorophenyl)-6-methyl-1H-indazol-5-yl)-4-isobutylpiperazin-1-yl)sulfonyl)picolinonitrile]: 38 nM. As to `Cc1cc2c(cnn2-c2ccc(F)cc2)cc1C1CN(S(=O)(=O)c2cnn(C)n2)CCN1CC1CNC(=O)C1` (single isomer, unassigned) [Example 118, 4-((2-(1-(4-fluorophenyl)-6-methyl-1H-indazol-5-yl)-4-((2-methyl-2H-1,2,3-triazol-4-yl)sulfonyl)piperazin-1-yl)methyl)pyrrolidin-2-one], the affinity, expressed as Ki, was 190 nM. `Cc1cc2c(cnn2-c2ccc(F)cc2)cc1C1CN(S(=O)(=O)c2cnn(C)n2)CCN1CC1CC(C)(C)C1` (single isomer, unassigned) [Example 119, 5-(1-((3,3-dimethylcyclobutyl)methyl)-4-((2-methyl-2H-1,2,3-triazol-4-yl)sulfonyl)piperazin-2-yl)-1-(4-fluorophenyl)-6-methyl-1H-indazole] showed a Ki of 19 nM.

On to `Cc1cc2c(cnn2-c2ccc(F)cc2)cc1C1CN(S(=O)(=O)c2cnn(C)n2)CCN1CC1CCCO1` (single isomer, unassigned) [Example 120, 1-(4-fluorophenyl)-6-methyl-5-(4-((2-methyl-2H-1,2,3-triazol-4-yl)sulfonyl)-1-((tetrahydrofuran-2-yl)methyl)piperazin-2-yl)-1H-indazole], for which affinity was put at a Ki of 65 nM. This Ki lies about 3.4-fold higher than the previous one.

As to `Cc1cc2c(cnn2-c2ccc(F)cc2)cc1C1CN(S(=O)(=O)c2cnn(C)n2)CCN1CC1CC(=O)N(C)C1` (single isomer, unassigned) [Example 121, 4-((2-(1-(4-fluorophenyl)-6-methyl-1H-indazol-5-yl)-4-((2-methyl-2H-1,2,3-triazol-4-yl)sulfonyl)piperazin-1-yl)methyl)-1-methylpyrrolidin-2-one], the affinity corresponds to a Ki of 270 nM. For `CC[C@H](C)N1CCN(S(=O)(=O)c2cnn(C)n2)C[C@@H]1c1cc2cnn(-c3ccc(F)cc3)c2cc1C` (single isomer, unassigned) [Example 123, 5-(1-(sec-butyl)-4-((2-methyl-2H-1,2,3-triazol-4-yl)sulfonyl)piperazin-2-yl)-1-(4-fluorophenyl)-6-methyl-1H-indazole], the Ki was determined as 71 nM. In turn, `Cc1ncc(S(=O)(=O)N2CCN(CC3CCC3)C(c3cc4cnn(-c5ccc(F)cc5)c4cc3C)C2)s1` (single isomer, unassigned) [Example 124, 5-((4-(cyclobutylmethyl)-3-(1-(4-fluorophenyl)-6-methyl-1H-indazol-5-yl)piperazin-1-yl)sulfonyl)-2-methylthiazole] registered an inhibition constant Ki of 14 nM.

For the compound `CC(=O)CN1CCN(S(=O)(=O)c2cnn(C)n2)CC1c1cc2cnn(-c3ccc(F)cc3)c2cc1C` (single isomer, unassigned) [Example 125, 1-(2-(1-(4-fluorophenyl)-6-methyl-1H-indazol-5-yl)-4-((2-methyl-2H-1,2,3-triazol-4-yl)sulfonyl)piperazin-1-yl)propan-2-one], the Ki is 87 nM.

Turning to `Cc1cc2c(cnn2-c2ccc(F)cc2)cc1[C@H]1CN(S(=O)(=O)c2cnn(C)n2)C[C@@H](C)N1CC(C)C` (single isomer, unassigned) [Example 126], affinity was put at a Ki of 62 nM. To `Cc1cc2c(cnn2-c2ccc(F)cc2)cc1C1CN(S(=O)(=O)c2cnn(C)c2)CCN1CCC(F)(F)F` (single isomer, unassigned) [Example 128, 1-(4-fluorophenyl)-6-methyl-5-(4-((1-methyl-1H-pyrazol-4-yl)sulfonyl)-1-(3,3,3-trifluoropropyl)piperazin-2-yl)-1H-indazole] belongs 14 nM; to `Cc1cc2c(cnn2-c2ccc(F)cc2)cc1C1CN(S(=O)(=O)c2cnn(C)c2C)CCN1CCC(F)(F)F` (single isomer, unassigned) [Example 129, 5-(4-((1,5-dimethyl-1H-pyrazol-4-yl)sulfonyl)-1-(3,3,3-trifluoropropyl)piperazin-2-yl)-1-(4-fluorophenyl)-6-methyl-1H-indazole], 13 nM. To `Cc1cc2c(cnn2-c2ccc(F)cc2)cc1C1CN(S(=O)(=O)c2ccc(C#N)cc2)CCN1CCC(F)(F)F` (single isomer, unassigned) [Example 130, 4-((3-(1-(4-fluorophenyl)-6-methyl-1H-indazol-5-yl)-4-(3,3,3-trifluoropropyl)piperazin-1-yl)sulfonyl)benzonitrile] belongs 7.7 nM; to `CCn1cc(S(=O)(=O)N2CCN(CCC(F)(F)F)C(c3cc4cnn(-c5ccc(F)cc5)c4cc3C)C2)cn1` (single isomer, unassigned) [Example 131, 5-(4-((1-ethyl-1H-pyrazol-4-yl)sulfonyl)-1-(3,3,3-trifluoropropyl)piperazin-2-yl)-1-(4-fluorophenyl)-6-methyl-1H-indazole], 13 nM.

Regarding `Cc1cc2c(cnn2-c2ccc(F)cc2)cc1C1CN(S(=O)(=O)c2cccnc2)CCN1CCC(F)(F)F` (single isomer, unassigned) [Example 132, 1-(4-fluorophenyl)-6-methyl-5-(4-(pyridin-3-ylsulfonyl)-1-(3,3,3-trifluoropropyl)piperazin-2-yl)-1H-indazole], the Ki stood at 13 nM.

Source of the values: patent publication US12098144B2, “Piperazine indazole glucocorticoid receptor antagonists” (Corcept Therapeutics Incorporated, priority 2021, dated 2024).
